Literature values as cited in patent US7262212B2, “2,3-dihydro-6-nitroimidazo[2,1-b]oxazoles” (Otsuka Pharmaceutical Co., Ltd., priority 2002, dated 2007).

Test system: multi-drug-resistant Mycobacterium tuberculosis
Settings: multi-drug-resistant strain; cited from earlier work

## CCC1Cn2cc([N+](=O)[O-])nc2O1 (stereo not shown) [CGI-17341]
  bactericidal action: has a bactericidal action
